From patent US20220380338A1, “CYCLOALKYL 3-OXOPIPERAZINE CARBOXAMIDES AND CYCLOHETEROALKYL 3-OXOPIPERAZINE CARBOXAMIDES AS NAV1.8 INHIBITORS” (Merck Sharp & Dohme LLC, priority 2021, published 2022)

Biological target: T1, human NaV1.8 (Homo sapiens, UniProt Q9Y5Y9)
T1 construct: expressed in transfected cells
Experiment: Nav1.8 Qube® Assay (automated 384-well patch-clamp, inhibition of sodium current)
Assay type: cell-based
Conditions: human NaV1.8 channels stably expressed in HEK 293 cells, room temperature
How it was run: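 Whole-cell voltage clamp at room temperature in HEK293 cells stably expressing NaV1.8; from −90 mV hold, 10 s 1 Hz train of 20 ms pulses to 10 mV with 980 ms repolarization to −67 mV. Peak currents of 1st and 10th pulses give resting and inactivated-state IC50s, Hill fit.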

T1 sequence (Q9Y5Y9 whole entry): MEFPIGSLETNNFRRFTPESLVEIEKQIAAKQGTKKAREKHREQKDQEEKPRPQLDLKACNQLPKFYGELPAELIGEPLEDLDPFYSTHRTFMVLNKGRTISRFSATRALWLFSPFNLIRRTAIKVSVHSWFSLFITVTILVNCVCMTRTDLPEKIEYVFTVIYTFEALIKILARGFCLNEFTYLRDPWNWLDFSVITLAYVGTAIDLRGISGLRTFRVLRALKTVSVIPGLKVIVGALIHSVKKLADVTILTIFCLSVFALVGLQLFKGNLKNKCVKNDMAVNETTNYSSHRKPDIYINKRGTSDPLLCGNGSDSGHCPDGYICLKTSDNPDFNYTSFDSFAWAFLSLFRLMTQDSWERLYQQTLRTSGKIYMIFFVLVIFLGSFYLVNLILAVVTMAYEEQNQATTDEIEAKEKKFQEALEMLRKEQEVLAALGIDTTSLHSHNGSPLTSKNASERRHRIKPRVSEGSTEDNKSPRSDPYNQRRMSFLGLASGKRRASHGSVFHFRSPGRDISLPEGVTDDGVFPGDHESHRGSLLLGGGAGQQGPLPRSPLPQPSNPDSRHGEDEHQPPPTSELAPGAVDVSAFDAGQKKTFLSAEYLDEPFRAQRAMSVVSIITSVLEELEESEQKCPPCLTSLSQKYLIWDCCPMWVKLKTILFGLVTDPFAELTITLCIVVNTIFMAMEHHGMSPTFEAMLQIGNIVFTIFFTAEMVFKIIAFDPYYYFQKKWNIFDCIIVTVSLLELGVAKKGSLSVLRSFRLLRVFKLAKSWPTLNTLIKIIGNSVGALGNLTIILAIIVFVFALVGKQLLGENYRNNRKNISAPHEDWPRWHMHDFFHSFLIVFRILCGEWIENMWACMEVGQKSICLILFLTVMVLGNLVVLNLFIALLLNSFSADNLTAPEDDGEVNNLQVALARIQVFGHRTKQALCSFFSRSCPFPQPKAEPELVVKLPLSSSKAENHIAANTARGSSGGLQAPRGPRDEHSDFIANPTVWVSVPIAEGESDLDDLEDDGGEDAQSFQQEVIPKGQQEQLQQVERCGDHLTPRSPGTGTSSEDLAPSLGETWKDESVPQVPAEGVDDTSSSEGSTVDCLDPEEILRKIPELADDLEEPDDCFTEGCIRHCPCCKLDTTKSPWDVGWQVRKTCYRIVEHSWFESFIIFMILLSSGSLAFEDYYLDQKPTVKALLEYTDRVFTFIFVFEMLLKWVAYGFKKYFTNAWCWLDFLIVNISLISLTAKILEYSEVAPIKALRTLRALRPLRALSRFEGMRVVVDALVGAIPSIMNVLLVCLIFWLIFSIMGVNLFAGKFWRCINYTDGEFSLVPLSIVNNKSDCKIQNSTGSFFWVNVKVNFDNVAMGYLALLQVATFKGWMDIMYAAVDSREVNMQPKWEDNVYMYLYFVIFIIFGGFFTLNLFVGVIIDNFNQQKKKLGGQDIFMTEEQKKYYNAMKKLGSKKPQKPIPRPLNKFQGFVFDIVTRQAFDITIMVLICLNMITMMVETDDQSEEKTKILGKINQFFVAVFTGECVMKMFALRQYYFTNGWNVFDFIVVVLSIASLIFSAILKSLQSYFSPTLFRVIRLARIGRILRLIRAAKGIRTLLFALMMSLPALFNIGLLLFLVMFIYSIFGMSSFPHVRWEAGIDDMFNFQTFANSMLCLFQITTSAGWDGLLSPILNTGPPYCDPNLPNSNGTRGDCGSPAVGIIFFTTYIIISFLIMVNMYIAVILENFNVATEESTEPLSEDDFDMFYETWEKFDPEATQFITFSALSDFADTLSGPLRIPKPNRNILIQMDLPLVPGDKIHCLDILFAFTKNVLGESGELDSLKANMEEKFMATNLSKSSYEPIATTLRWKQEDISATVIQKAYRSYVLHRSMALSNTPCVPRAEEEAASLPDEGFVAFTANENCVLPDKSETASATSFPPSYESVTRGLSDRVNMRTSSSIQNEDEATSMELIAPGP

Molecule `Cc1cc(C(NC(=O)N2CCNC(=O)[C@H]2C)C2CCC(C(F)(F)F)CC2)ccc1F` (single isomer, unassigned) [Example 36D] has an IC50 of 3.99 nM.

Molecule `C[C@@H]1C(=O)NCCN1C(=O)NC(c1ccc(Cl)c(C(F)F)c1)C1CCC(C(F)(F)F)CC1` (single isomer, unassigned) [Example 37A, (2R)-N-((R or S)-(4-chloro-3-(difluoro-methyl)phenyl)(cis-4-(trifluoromethyl)cyclohexyl)methyl)-2-methyl-3-oxopiperazine-1-carboxamide] has an IC50 of 108 nM.

Work on `C[C@@H]1C(=O)NCCN1C(=O)NC(c1ccc(Cl)c(C(F)F)c1)C1CCC(C(F)(F)F)CC1` (single isomer, unassigned) [Example 37B, (2R)-N-((R or S)-(4-chloro-3-(difluoro-methyl)phenyl)(trans-4-(trifluoromethyl)cyclohexyl)methyl)-2-methyl-3-oxopiperazine-1-carboxamide] yielded an IC50 of 145 nM.

Molecule `C[C@@H]1C(=O)NCCN1C(=O)NC(c1ccc(Cl)c(C(F)F)c1)C1CCC(C(F)(F)F)CC1` (single isomer, unassigned) [Example 37C, (2R)-N-((S or R)-(4-chloro-3-(difluoro-methyl)phenyl)(cis-4-(trifluoromethyl)cyclohexyl)methyl)-2-methyl-3-oxopiperazine-1-carboxamide] has an IC50 of 27.2 nM.

`C[C@@H]1C(=O)NCCN1C(=O)NC(c1ccc(Cl)c(C(F)F)c1)C1CCC(C(F)(F)F)CC1` (single isomer, unassigned) [Example 37D, (2R)-N-((S or R)-(4-chloro-3-(difluoro-methyl)phenyl)(trans-4-(trifluoromethyl)cyclohexyl)methyl)-2-methyl-3-oxopiperazine-1-carboxamide] gave an IC50 of 1.99 nM.

`C[C@@H]1C(=O)NCCN1C(=O)NC(c1ccc(F)c(Cl)c1)C1CC(OC(F)F)C1` (single isomer, unassigned) [Example 38A, (2R)-N-((R or S)-(3-chloro-4-fluoro-phenyl)-(trans-3-(difluoro-methoxy)cyclobutyl)-methyl)-2-methyl-3-oxopiperazine-1-carboxamide] was tested, and the IC50 was 146 nM.

`C[C@@H]1C(=O)NCCN1C(=O)NC(c1ccc(F)c(Cl)c1)C1CC(OC(F)F)C1` (single isomer, unassigned) [Example 38B, (2R)-N-((R or S)-(3-chloro-4-fluorophenyl) (cis-3-(difluoromethoxy)cyclobutyl)methyl)-2-methyl-3-oxopiperazine-1-carboxamide] gave an IC50 of 158 nM.

With `C[C@@H]1C(=O)NCCN1C(=O)NC(c1ccc(F)c(Cl)c1)C1CC(OC(F)F)C1` (single isomer, unassigned) [Example 38C, (2R)-N-((S or R)-(3-chloro-4-fluorophenyl) (cis-3-(difluoromethoxy)cyclobutyl)methyl)-2-methyl-3-oxopiperazine-1-carboxamide] the IC50 was 87.1 nM.

`C[C@@H]1C(=O)NCCN1C(=O)NC(c1ccc(F)c(Cl)c1)C1CC(OC(F)F)C1` (single isomer, unassigned) [Example 38D, (2R)-N-((S or R)-(3-chloro-4-fluorophenyl)-(trans-3-(difluoro-methoxy)cyclobutyl)-methyl)-2-methyl-3-oxopiperazine-1-carboxamide] showed an IC50 of 17.9 nM.

For `C[C@@H]1C(=O)NCCN1C(=O)NC(c1ccc(F)c(Cl)c1F)C1CC(OC(F)F)C1` (single isomer, unassigned) [Example 39A, (2R)-N-((R or S)-(3-chloro-2,4-difluoro-phenyl)(trans-3-(difluoromethoxy)-cyclobutyl)methyl)-2-methyl-3-oxopiperazine-1-carboxamide], the IC50 was 816 nM.

In the case of `C[C@@H]1C(=O)NCCN1C(=O)NC(c1ccc(F)c(Cl)c1F)C1CC(OC(F)F)C1` (single isomer, unassigned) [Example 39B, (2R)-N-((R or S)-(3-chloro-2,4-difluoro-phenyl)(cis-3-(difluoro-methoxy)cyclobutyl)-methyl)-2-methyl-3-oxopiperazine-1-carboxamide], the IC50 is reported as 916 nM.

Molecule `C[C@@H]1C(=O)NCCN1C(=O)NC(c1ccc(F)c(Cl)c1F)C1CC(OC(F)F)C1` (single isomer, unassigned) [Example 39C, (2R)-N-((S or R)-(3-chloro-2,4-difluoro-phenyl)(cis-3-(difluoro-methoxy)cyclobutyl)-methyl)-2-methyl-3-oxopiperazine-1-carboxamide] has an IC50 of 48.5 nM.

In the case of `C[C@@H]1C(=O)NCCN1C(=O)NC(c1ccc(F)c(Cl)c1F)C1CC(OC(F)F)C1` (single isomer, unassigned) [Example 39D, (2R)-N-((S or R)-(3-chloro-2,4-difluoro-phenyl)(trans-3-(difluoro-methoxy)cyclobutyL)-methyl)-2-methyl-3-oxopiperazine-1-carboxamide], the IC50 is reported as 8.1 nM.

For `COC1CC(C(NC(=O)N2CCNC(=O)[C@H]2C)c2ccc(F)c(Cl)c2F)C1` (single isomer, unassigned) [Example 40A, (2R)-N-((R or S)-(3-chloro-2,4-difluoro-phenyl)(trans-3-methoxy-cyclobutyl)methyl)-2-methyl-3-oxopiperazine-1-carboxamide], the IC50 was 11700 nM.

Molecule `COC1CC(C(NC(=O)N2CCNC(=O)[C@H]2C)c2ccc(F)c(Cl)c2F)C1` (single isomer, unassigned) [Example 40B, (2R)-N-((R or S)-(3-chloro-2,4-difluoro-phenyl)(cis-3-methoxy-cyclobutyl)methyl)-2-methyl-3-oxopiperazine-1-carboxamide] has an IC50 of 14500 nM.

`COC1CC(C(NC(=O)N2CCNC(=O)[C@H]2C)c2ccc(F)c(Cl)c2F)C1` (single isomer, unassigned) [Example 40C, (2R)-N-((S or R)-(3-chloro-2,4-difluoro-phenyl)(cis-3-methoxycyclobutyl)-methyl)-2-methyl-3-oxopiperazine-1-carboxamide] showed an IC50 of 362 nM.

`COC1CC(C(NC(=O)N2CCNC(=O)[C@H]2C)c2ccc(F)c(Cl)c2F)C1` (single isomer, unassigned) [Example 40D, (2R)-N-((S or R)-(3-chloro-2,4-difluoro-phenyl)(trans-3-methoxycyclobutyl)-methyl)-2-methyl-3-oxopiperazine-1-carboxamide] gave an IC50 of 108 nM.

In the case of `C[C@@H]1C(=O)NCCN1C(=O)NC(c1ccc(F)c(Cl)c1F)C1CC12CC2` (single isomer, unassigned) [Example 41A, (2R)-N-((R or S)-(3-chloro-2,4-difluoro-phenyl)((R or S)-spiro[2.2]pentan-1-yl)methyl)-2-methyl-3-oxopiperazine-1-carboxamide], the IC50 is reported as 31.6 nM.

For `C[C@@H]1C(=O)NCCN1C(=O)NC(c1ccc(F)c(Cl)c1F)C1CC12CC2` (single isomer, unassigned) [Example 41B, (2R)-N-((S or R)-(3-chloro-2,4-difluoro-phenyl)((R or S)-spiro[2.2]pentan-1-yl)methyl)-2-methyl-3-oxopiperazine-1-carboxamide], the IC50 was 1180 nM.

Molecule `C[C@@H]1C(=O)NCCN1C(=O)NC(c1ccc(F)c(Cl)c1F)C1CC12CC2` (single isomer, unassigned) [Example 41C, (2R)-N-((R or S)-(3-chloro-2,4-difluoro-phenyl)(S or R)-spiro[2.2]pentan-1-yl)methyl)-2-methyl-3-oxopiperazine-1-carboxamide] has an IC50 of 143 nM.

`C[C@@H]1C(=O)NCCN1C(=O)NC(c1ccc(F)c(Cl)c1F)C1CC12CC2` (single isomer, unassigned) [Example 41D, (2R)-N-((S or R)-(3-chloro-2,4-difluoro-phenyl)((S or R)-spiro[2.2]pentan-1-yl)methyl)-2-methyl-3-oxopiperazine-1-carboxamide] showed an IC50 of 1060 nM.

In the case of `C[C@@H]1C(=O)NCCN1C(=O)NC(c1ccc(F)c(Cl)c1F)C1CCC(F)(F)C1` (single isomer, unassigned) [Example 42A, (2R)-N-((R or S)-(3-choro-2,4-difluoro-phenyl)((R or S)-3,3-difluorocyclopentyl)-methyl)-2-methyl-3-oxopiperazine-1-carboxamide], the IC50 is reported as 321 nM.

`C[C@@H]1C(=O)NCCN1C(=O)NC(c1ccc(F)c(Cl)c1F)C1CCC(F)(F)C1` (single isomer, unassigned) [Example 42B, (2R)-N-((R or S)-(3-chloro-2,4-difluoro-phenyl)((S or R)-3,3-difluorocyclopentyl)-methyl)-2-methyl-3-oxopiperazine-1-carboxamide] was tested, and the IC50 was 2830 nM.

With `C[C@@H]1C(=O)NCCN1C(=O)NC(c1ccc(F)c(Cl)c1F)C1CCC(F)(F)C1` (single isomer, unassigned) [Example 42C, (2R)-N-((S or R)-(3-chloro-2,4-difluoro-phenyl)((R or S)-(3,3-difluorocyclopentyl)-methyl)-2-methyl-3-oxopiperazine-1-carboxamide] the IC50 was 24.1 nM.

`C[C@@H]1C(=O)NCCN1C(=O)NC(c1ccc(F)c(Cl)c1F)C1CCC(F)(F)C1` (single isomer, unassigned) [Example 42D, (2R)-N-((S or R)-(3-chloro-2,4-difluoro-phenyl)((S or R)-3,3-difluorocyclopentyl)-methyl)-2-methyl-3-oxopiperazine-1-carboxamide] showed an IC50 of 20.1 nM.

`C[C@@H]1C(=O)NCCN1C(=O)NC(c1ccc(F)c(Cl)c1)C1CC(C(F)(F)F)C1` (single isomer, unassigned) [Example 43A, (2R)-N-((R or S)-(3-chloro-4-fluorophenyl)-(trans-3-(trifluoro-methyl)-cyclobutyl)-methyl)-2-methyl-3-oxopiperazine-1-carboxamide] was tested, and the IC50 was 39.6 nM.

`C[C@@H]1C(=O)NCCN1C(=O)NC(c1ccc(F)c(Cl)c1)C1CC(C(F)(F)F)C1` (single isomer, unassigned) [Example 43B, (2R)-N-((R or S)-(3-chloro-4-fluorophenyl)-(cis-3-(trifluoromethyl)-cyclobutyl)methyl)-2-methyl-3-oxopiperazine-1-carboxamide] showed an IC50 of 26.4 nM.
